Molecules are shown by their SMILES. Where a name gives a salt, the structure may show the parent alone.

As to `CCc1ccccc1O` [2-ethylphenol], the flash point turned out to be 78.00 °C.
`CCC(C(=O)O)C(=O)O` [2-ethylpropanedioic acid] yielded a flash point of 85.00 °C.
`O=C(Cl)c1ccccc1F` [2-fluorobenzoyl chloride] showed a flash point of 82.00 °C.
Regarding `O=COCCOC=O` [2-formyloxyethyl formate], the flash point was found to be 93.00 °C.
Take `CC(C)(C)OO` [2-hydroperoxy-2-methylpropane]: the flash point came out at 27.00 °C.
Under `CC(C)(OO)c1ccccc1` [2-hydroperoxypropan-2-ylbenzene] stands 57.00 °C; under `N#CC(O)c1ccccc1` (centres undefined) [2-hydroxy-2-phenylacetonitrile], 82.00 °C.
In turn, `CSCCC(O)C(=O)O` (centres undefined) [2-hydroxy-4-methylsulfanylbutanoic acid] registered a flash point of 121.00 °C.
`O=Cc1ccccc1O` [2-hydroxybenzaldehyde] showed a flash point of 78.00 °C.
`O=C(O)c1ccccc1O` [2-hydroxybenzoic acid] gave a flash point of 157.00 °C.
Next, `C=C(C)C(=O)OCCO` [2-hydroxyethyl 2-methylprop-2-enoate]: 97.00 °C; `C=CC(=O)OCCO` [2-hydroxyethyl prop-2-enoate]: 101.00 °C; `C=CC(=O)OCC(C)O` (centres undefined) [2-hydroxypropyl prop-2-enoate]: 65.00 °C.
Under `CCC(C)(C)OC` [2-methoxy-2-methylbutane] stands -7.00 °C; under `COC(C)(C)C` [2-methoxy-2-methylpropane], -26.00 °C; under `C=CCc1ccc(O)c(OC)c1` [2-methoxy-4-prop-2-enylphenol], 104.00 °C.
`COc1ccccc1N` [2-methoxyaniline] showed a flash point of 99.00 °C.
Next, `C=CC(=O)OCCOC` [2-methoxyethyl prop-2-enoate]: 82.00 °C; `CC(C=O)=Cc1ccccc1` [2-methyl-3-phenylprop-2-enal]: 79.00 °C; `Cc1ccc(C(C)C)cc1O` [2-methyl-5-propan-2-ylphenol]: 100.00 °C.
Next, `CC(C)CN(CC(C)C)CC(C)C` [2-methyl-N,N-bis(2-methylpropyl)propan-1-amine]: 51.00 °C; `CC1CN1` (centres undefined) [2-methylaziridine]: -4.00 °C; `Cc1ccccc1C=O` [2-methylbenzaldehyde]: 67.00 °C.
Under `C#CC(C)(C)O` [2-methylbut-3-yn-2-ol] stands 25.00 °C; under `CCC(C)C` [2-methylbutane], -57.00 °C; under `CC1CCCCC1O` (centres undefined) [2-methylcyclohexan-1-ol], 59.00 °C.
The molecule `CCCCCC(C)(C)S` [2-methylheptane-2-thiol] had a flash point of 46.00 °C.
Under `Cc1ccc2ccccc2c1` [2-methylnaphthalene] stands 98.00 °C; under `CC(C#N)CCC#N` (centres undefined) [2-methylpentanedinitrile], 126.00 °C.
In turn, `Cc1ccccc1O` [2-methylphenol] showed a flash point of 81.00 °C.
Under `C=C(C)CO` [2-methylprop-2-en-1-ol] stands 33.00 °C.
For the molecule `C=C(C)C#N` [2-methylprop-2-enenitrile], the flash point came to 13.00 °C.
Take `CC(C)C=O` [2-methylpropanal]: the flash point was -40.00 °C.
Next, `CC(CO)CO` [2-methylpropane-1,3-diol]: 127.00 °C; `CC(C)C(=O)O.CC(C)C(O)C(C)(C)CO` (centres undefined) [2-methylpropanoic acid;2,2,4-trimethylpentane-1,3-diol]: 120.00 °C; `CC(C)C(=O)O` [2-methylpropanoic acid]: 56.00 °C.
`C=C(C)C(=O)OCC(C)C` [2-methylpropyl 2-methylprop-2-enoate]: the flash point came out at 49.00 °C.
Take `CC(C)CON=O` [2-methylpropyl nitrite]: the flash point was -23.00 °C.
Next, `O=[N+]([O-])c1ccccc1O` [2-nitrophenol]: 108.00 °C; `CC(C)[N+](=O)[O-]` [2-nitropropane]: 24.00 °C.
Next, `O=C(O)Cc1ccccc1` [2-phenylacetic acid]: 132.00 °C.
Under `Oc1ccccc1-c1ccccc1` [2-phenylphenol] stands 124.00 °C.
On to `CC(C)OCCO` [2-propan-2-yloxyethanol], for which the flash point amounted to 33.00 °C.
Under `CC(C)OC(C)C` [2-propan-2-yloxypropane] stands -28.00 °C; under `CC(C)c1ccccc1O` [2-propan-2-ylphenol], 104.00 °C; under `CCCOCCO` [2-propoxyethanol], 49.00 °C.
`CCCC(CCC)C(=O)O` [2-propylpentanoic acid]: the flash point turned out to be 111.00 °C.
`OCCS` [2-sulfanylethanol] gave a flash point of 74.00 °C.
Under `CC(C)(C)c1cc(O)ccc1O` [2-tert-butylbenzene-1,4-diol] stands 171.00 °C; under `CC(=O)C(C)(C)C` [3,3-dimethylbutan-2-one], 5.00 °C; under `Nc1ccc(Cl)c(Cl)c1` [3,4-dichloroaniline], 166.00 °C.
Next, `O=C1CCCc2ccccc21` [3,4-dihydro-2H-naphthalen-1-one]: 129.00 °C.
With `O=C1CCc2ccccc2O1` [3,4-dihydrochromen-2-one], the flash point was determined as 130.00 °C.
Consider `CC1=CC(=O)CC(C)(C)C1` [3,5,5-trimethylcyclohex-2-en-1-one], for which the flash point amounted to 84.00 °C.
Next, `Cc1cc(C)cc(O)c1` [3,5-dimethylphenol]: 80.00 °C; `CC(C)=CCCC(C)CC=O` (centres undefined) [3,7-dimethyloct-6-enal]: 74.00 °C; `C=CC(C)(CCC=C(C)C)OC(C)=O` (centres undefined) [3,7-dimethylocta-1,6-dien-3-yl acetate]: 94.00 °C.
Under `N#CCCNCCC#N` [3-(2-cyanoethylamino)propanenitrile] stands 110.00 °C; under `CCC1CCC(CCC(=O)O)C1` (centres undefined) [3-(3-ethylcyclopentyl)propanoic acid], 101.00 °C; under `CC1(C)CC(N)CC(C)(CN)C1` (centres undefined) [3-(aminomethyl)-3,5,5-trimethylcyclohexan-1-amine], 110.00 °C.
In turn, `CN(C)CCC#N` [3-(dimethylamino)propanenitrile] displayed a flash point of 64.00 °C.
In turn, `C1CC2OC2CC1C1CO1` (centres undefined) [3-(oxiran-2-yl)-7-oxabicyclo[4.1.0]heptane] gave a flash point of 110.00 °C.
Consider `Nc1cccc(C(F)(F)F)c1` [3-(trifluoromethyl)aniline], for which the flash point is 85.00 °C.
In turn, `CN1CCC[C@H]1c1cccnc1` [3-[(2S)-1-methylpyrrolidin-2-yl]pyridine] yielded a flash point of 95.00 °C.
Next, `NCCCO` [3-aminopropan-1-ol]: 79.00 °C; `C=CCBr` [3-bromoprop-1-ene]: -2.00 °C; `C#CCBr` [3-bromoprop-1-yne]: 10.00 °C.
Next, `Cc1ccc(N)cc1Cl` [3-chloro-4-methylaniline]: 100.00 °C; `Nc1cccc(Cl)c1` [3-chloroaniline]: 124.00 °C.
Under `C=CCCl` [3-chloroprop-1-ene] stands -32.00 °C; under `N#CCCCl` [3-chloropropanenitrile], 76.00 °C.
As to `CCOCCCO` [3-ethoxypropan-1-ol], the flash point stood at 54.00 °C.
In turn, `CC(=O)C(C)O` (centres undefined) [3-hydroxybutan-2-one] had a flash point of 41.00 °C.
Next, `CC(O)CC=O` (centres undefined) [3-hydroxybutanal]: 66.00 °C; `C=CC(=O)OCCCO` [3-hydroxypropyl prop-2-enoate]: 97.00 °C.
On to `C=CCN=C=S` [3-isothiocyanatoprop-1-ene], for which the flash point is 46.00 °C.
Next, `CCC=CCC1=C(C)CCC1=O` [3-methyl-2-pent-2-enylcyclopent-2-en-1-one]: 107.00 °C.
Under `Cc1cccc(N)c1` [3-methylaniline] stands 86.00 °C; under `CSCCC=O` [3-methylsulfanylpropanal], 61.00 °C; under `CC(=O)CC(=O)Nc1ccccc1` [3-oxo-N-phenylbutanamide], 163.00 °C.
As to `S=c1[nH]c2ccccc2s1` [3H-1,3-benzothiazole-2-thione], the flash point came to 200.00 °C.
Under `O=C1OC(=O)C2CC=CCC12` (centres undefined) [3a,4,7,7a-tetrahydro-2-benzofuran-1,3-dione] stands 157.00 °C; under `O=C1OC(=O)c2c(Cl)c(Cl)c(Cl)c(Cl)c21` [4,5,6,7-tetrachloro-2-benzofuran-1,3-dione], 362.00 °C.
For the molecule `CC(=O)C=CC1C(C)=CCCC1(C)C` (centres undefined) [4-(2,6,6-trimethylcyclohex-2-en-1-yl)but-3-en-2-one], the flash point came to 118.00 °C.
As for `CC1(N)CCC(C(C)(C)N)CC1` (centres undefined) [4-(2-aminopropan-2-yl)-1-methylcyclohexan-1-amine], the flash point was 93.00 °C.
Next, `CCC(C)(C)c1ccc(O)cc1` [4-(2-methylbutan-2-yl)phenol]: 111.00 °C.
Under `Cc1cc(-c2ccc(N)c(C)c2)ccc1N` [4-(4-amino-3-methylphenyl)-2-methylaniline] stands 244.00 °C; under `C1CN(SSN2CCOCC2)CCO1` [4-(morpholin-4-yldisulfanyl)morpholine], 121.00 °C; under `CN(C)c1ccc(N)cc1` [4-N,4-N-dimethylbenzene-1,4-diamine], 91.00 °C.

The values are drawn from a flash point compilation (Sun et al. 2020).
